Test results reported in patent US20070249561A1, “Pharmacological method for treatment of neuropathic pain” (priority 2006, published 2007).

Legend:
[1] = test system: spared nerve injury (SNI) model of neuropathic pain in mice; test: Mechanical threshold (von Frey) to hindpaw withdrawal in SNI mice; type: in vivo, mouse; settings: intrathecal
Protocol: (§1) Male CD1 mice (Charles Rivers Laboratories, Inc) were used, and weighed 18-22 g at the time of surgery, and 29-32 g during pharmacological testing. To produce the SNI model in mice, surgical procedures essentially identical to those used in rat were used. Unlike the rat SNI model, where an indwelling catheter was inserted surgically, vehicle or drugs were injected directly into the intrathecal space of the unanesthetized mouse using the classical method of Hylden and Wilcox (“Intrathecal morphine in mice: a new technique” Eur. J. Pharmacol. 17:313-6, 1980) to administer drugs to the intrathecal space dorsal to but not within the spinal cord. Briefly, a piece of cloth was used to restrain the mouse by cradling the iliac crest between one's thumb and forefinger. The L5-L6 spinal bones were located, and a 0.5 inch 30G hypodermic needle was inserted perpendicularly into the L4-L5 interspinous space. Upon insertion, the needle was angled about 30°-45° from the coronal (frontal) plane, and then advanced slightly. The needle angle was then adjusted gently, until paw or tail movement was evoked, whereupon the needle was held in position and 5 μL of saline or drug was administered via a 25 μL Hamilton syringe.
(§2) Data are presented as mean±standard error of the mean (SEM). Differences between means were analyzed by two-way repeated-measures analysis of variance (ANOVA), with drug treatment as the between-subjects variable and time as the repeated measure. If statistically significant differences (p<0.05) were detected, the analyses were followed by post hoc t-tests.
(§3) The procedures used to evaluate behavioral signs of mechanical and cold allodynia were essentially the same for rats as they were for mice. Animals were acclimated to a stainless steel grid within individual Plexiglas boxes for 30-60 minutes, and then tested for mechanical allodynia and cold allodynia. In all animals, mechanical allodynia was assessed using von Frey (VF) filaments (Stoelting, Inc), and was done before assessing cold allodynia.
To assess mechanical allodynia, the plantar region of each hind paw was stimulated with an incremental series of 8 different VF hairs (monofilaments of logarithmically varying stiffness). In SNI rats and mice, the stimulus region was localized to the sural innervation territory of the lateral aspect of the plantar hind paw. The 50% withdrawal threshold (“mechanical” threshold) was determined using the up-down method of Dixon, modified by Chaplan et al. (Chaplan et al., 1994). First, an intermediate von Frey monofilament (e.g., for rats, number 4.31 was used, which exerts a force of 2.0 g) was applied perpendicular to the plantar skin, causing a slight bending of the hair. […]

[2] = test system: spared nerve injury (SNI) model of neuropathic pain in mice; test: Cold allodynia (acetone drop, paw withdrawal duration) in SNI mice; type: in vivo, mouse; settings: intrathecal
Protocol: as §1, §2, §3
Cold allodynia was evaluated by applying a drop of acetone to the plantar paw of control and SNI rats. Acetone was applied via a syringe connected to PE-90 tubing, flared at the tip to a diameter of 3.5 mm. Surface tension maintained the volume of the drop to 10-12 μL. The length of time the animal lifted or shook its paw was recorded. The duration of paw withdrawal was recorded for 30 seconds, and three observations were averaged. […] In such cases acetone testing was either terminated, or that data was not included in the final analysis.

[3] = Heneka et al. 2005; Maeshiba et al. 1997; cited from earlier work

Compound: CCc1ccc(CCOc2ccc(CC3SC(=O)NC3=O)cc2)nc1 (stereo not drawn) [pioglitazone, 5-[[4-[2-(5-ethylpyridin-2-yl)ethoxy]phenyl]methyl]thiazolidine-2,4-dione]
- onset of anti-allodynic effect after injection (mechanical threshold) ([1]; 150 μg dose): ≤ 30 min
- time after which anti-allodynic effect dissipated (mechanical threshold) ([1]; 150 μg dose): 90 min
- time of peak anti-allodynic effect after injection (mechanical threshold) ([1]; 150 μg dose): 30 min
- effect on behavioral signs of neuropathic pain (threshold to hindpaw withdrawal, von Frey) ([1]; dose series): reduced behavioral signs of neuropathic pain in a dose-dependent and reversible manner
- onset of analgesic effects after injection (cold allodynia) [2]: ≤ 30 min
- time of most pronounced analgesic effects (cold allodynia) [2]: approximately 60 minutes
- time within which analgesic effects began to dissipate (cold allodynia) [2]: ≤ 90 min
- effect on cold hypersensitivity (paw withdrawal duration after acetone) ([2]; dose series): decreased cold hypersensitivity in a dose-dependent and reversible manner
- ability to cross the blood brain barrier [3]: can cross the blood brain barrier
